Experimental data taken from patent US7906502B2, “2-azetidinone derivatives as cholesterol absorption inhibitors for the treatment of hyperlipidaemic conditions” (AstraZeneca AB, priority 2005, dated 2011).

Tests used:
[1] = Absorption in a Caco-2 cells model; type: in vitro ADME; conditions: human
Protocol: Absorption of the compounds of formula (I) was tested in a Caco-2 cells model (Gastroenterology 1989, 96, 736): […]

[2] = system: 14C-cholesterol absorption; assay: In vivo testing of cholesterol absorption inhibitors (A); design: species or system C57BL/6 female mice; conditions: 0.2 μmol/kg, gavage, procedure A, mice
Protocol: In vivo Testing of Cholesterol Absorption Inhibitors (A)
C57BL/6 female mice were maintained on regular chow diet and housed in individual cages to collect faeces. Mice were fasted for 3 hours and then gavaged with vehicle or compound. Half an hour later the mice were gavaged with radiolabelled cholesterol. Six hours after the ^14C-cholesterol gavage blood samples were taken via the tail and plasma prepared to determine how much cholesterol were absorbed. 24 hours after the gavage of ^14C-cholesterol the mice were bled and plasma were prepared for analysis. Faeces were collected for 24 hours to assess absorption efficiency.

SMILES: O=C(COc1ccc([C@@H]2[C@@H](SCC(O)c3ccc4c(c3)OCO4)C(=O)N2c2ccc(F)cc2)cc1)NCC(=O)N[C@H](CC1CCCCC1)C(=O)O (single isomer, unassigned) [Example 13, N-({4-[(2R,3R)-3-{[(2R or S)-2-(1,3-benzodioxol-5-yl)-2-hydroxyethyl]thio}-1-(4-fluorophenyl)-4-oxoazetidin-2-yl]phenoxy}acetyl)glycyl-3-cyclohexyl-D-alanine]
- Papp [1]: 0.05 ×10⁻⁶ cm/s

SMILES: CC(C)(C)[C@@H](NC(=O)CNC(=O)COc1ccc([C@@H]2[C@@H](SCC(O)c3ccc4c(c3)OCCO4)C(=O)N2c2ccc(F)cc2)cc1)C(=O)O (stereo partly drawn) [Example 1, N-({4-[(2R,3R)-3-{[2-(2,3-dihydro-1,4-benzodioxin-6-yl)-2-hydroxyethyl]thio}-1-(4-fluorophenyl)-4-oxoazetidin-2-yl]phenoxy}acetyl)glycyl-3-methyl-D-valine]
- inhibition of 14C-cholesterol absorption [2]: 61%
- Papp [1]: 0.02 ×10⁻⁶ cm/s

SMILES: CC(C)(C)[C@@H](NC(=O)CNC(=O)COc1ccc([C@@H]2[C@@H](SCC(O)c3ccc4c(c3)OCO4)C(=O)N2c2ccc(F)cc2)cc1)C(=O)O (stereo partly drawn) [Example 3, N-({4-[(2R,3R)-3-{[2-(1,3-Benzodioxol-5-yl)-2-hydroxyethyl]thio}-1-(4-fluorophenyl)-4-oxoazetidin-2-yl]phenoxy}acetyl)glycyl-3-methyl-D-valine]
- inhibition of 14C-cholesterol absorption [2]: 67%
